Measurements taken from patent US5298502A, “Method and composition for photodynamic treatment and detection of tumors” (priority 1991, dated 1994).

Assays:
SMT-F tumor = assay: Photodynamic treatment of SMT-F tumor in mice fed the agent (Example 10); format: in vivo, female DBA/2 mice
Excerpt: In this Example preliminary routine dosage experiments, using agent 6c of Example 6, were made, using female DBA/2 mice, four to six weeks old (14-18 grams). For tumor implantation into these animals, SMT-F tumor was aseptically removed from donor animals and cut into 1 mm^3 fragments. These tumor pieces were placed in Hank's Balanced Salt Solution containing penicillin and streptomycin. Tumor pieces were implanted via a torchar into the center of the right flank of shaved mice. […] The skin covering and surrounding the tumor was shaved and depilated two to three hours prior to light treatment.
The light treatment employed red light centered on 630 nm obtained from 1000 watt Xenon arc lamp system (Oriel Corporation) using a condenser which focused the light into a trifurcated fiberoptic bundle. A collimating lens was placed at the end of each fiberoptic in order to focus the image of the fiberoptic bundle on the treatment area: a spot of […] (1.33 cm^2). The design of the fiberoptic bundle ensured uniform distribution of light over this area. The output spectrum of the arc lamp was tuned to a peak intensity of 630 nm (602-670 nm range) using a water filter, a heat reflecting filter, and a 610 nm long pass filter. Light was delivered at a power density of 135 mW/cm^2. The possibility of tissue hyperthermia induced by this power density was evaluated by placing thermocouples at selected depths into the tumor during treatment, and measuring any temperature rise. No increase in tumor temperature greater than 2.4° C. (final temperature of 37.5°C.) was observed. During the light treatment the mice were restrained without anesthesia in specially designed holders and the tumors and surrounding skin were exposed to light to different degrees, from 0 to 600 J/cm^2. […]
In the course of the experiment the porphyrin fluorescence at 650 nm of the tumors (on exposure to fluorescing-inducing light at 630 nm) was measured with a fluorescence photometer.

[1] = LD50, single oral dose, rats; details: rat, in vivo, single oral dose in corn oil containing 15% of the agent, 14-day period

Cc1nn(-c2cc(NS(C)(=O)=O)c(Cl)cc2Cl)c(=O)n1C(F)F [Agent 6c]
mice with tumors cured (tumor free at 35 days post-treatment) (SMT-F tumor; 4000 ppm in feed for three days, 450 J/cm^2 of light): about 33%
porphyrin fluorescence of the tumors at 650 nm (SMT-F tumor; agent in feed): All animals showed an increase in tumor fluorescence
tumor regrowth between 35 and 91 days post-treatment (SMT-F tumor; mouse, in vivo): No tumor regrowth
LD50 at 336 h [1]: > 2600 mg/kg
